Data as given in paper PMC7582905, “Effect of Disulfide Cyclization of Ultrashort Cationic Lipopeptides on Antimicrobial Activity and Cytotoxicity” (International Journal of Molecular Sciences, 2020).

Key:
[1] = test system: Candida albicans ATCC 10231; assay: Transmission electron microscopy (TEM); assay type: cell-based; conditions: 2 × MIC, 5.0 × 10^6 CFU/mL, 1 h at room temperature
Procedure: TEM was used to examine ultrastructural changes in the Candida albicans ATCC 10231 cells treated with selected lipopeptides (L2, C2, L4, C4) and melittin (positive control). Fungal cells (Candida albicans ATCC 10231) were incubated in RMPI-1640 overnight. The cells were centrifuged (3500 rpm, 7 min) and resuspended in fresh RMPI-1640 medium to obtain dense cell suspension (5.0 × 10^6 CFU/mL). The high cell-density culture was prepared to facilitate TEM observations. Peptides’ concentrations were 2 × MIC. Samples were incubated for 1 h at room temperature. Importantly, MIC of selected peptides (L2, C2, L4, C4, and melittin) were also determined with dense inoculum of yeasts (5.0 × 10^6 CFU/mL). After the treatment, the fungal cells were centrifuged (3500× rpm, 10 min) and washed twice with PBS. Fungal cells were fixed with 2.5% glutaraldehyde buffered at pH 6.5 with 0.1 M sodium cacodylate (Polysciences, Warrington, PA, USA) for 6 h at room temperature. Postfixation was performed with a 1% osmium tetroxide (Polysciences, Warrington, PA, USA) solution for 2 h at 4 °C. The cells were then centrifuged and resuspended in 0.1 M cacodylate buffer (pH 6.5). After re-centrifugation, cells were dehydrated with ethanol. Yeasts were embedded in Epon 812 resin (Sigma-Aldrich) at room temperature. An ultramicrotome Leica UC7 was used to prepare ultrathin sections (55 nm). […]

C. albicans (ATCC 10231) = conditions: ref [5] Makovitzki et al.; cited from earlier work
Source text: When a peptide is cyclic its antifungal activity is usually remarkably higher than that of the antibacterial activity as compared that of the linear parent molecules. The differences in antifungal and antibacterial (Gram-negative) activities between the cyclic and linear lipopeptides are statistically significant (p < 0.05). Makovitzki et al. have reported a high antimicrobial activity of C16-KKkK-NH2 (originally written as C16-KKKK-NH2; k/K—D-enantiomer) against P. aeruginosa, E. coli, and S. aureus (3–6.25 μM; approx. 2.3–4.8 μg/mL) being similar to that of lipopeptide 3. However, different ...

Compound	ultrastructural changes in TEM micrographs [1]	MIC C. albicans (ATCC 10231) (C. albicans (ATCC 10231))
CC[C@H](C)[C@H](NC(=O)CN)C(=O)NCC(=O)N[C@@H](C)C(=O)N[C@H](C(=O)N[C@@H](CC(C)C)C(=O)N[C@@H](CCCCN)C(=O)N[C@H](C(=O)N[C@@H](CC(C)C)C(=O)N[C@H](C(=O)N[C@H](C(=O)NCC(=O)N[C@@H](CC(C)C)C(=O)N1CCC[C@H]1C(=O)N[C@@H](C)C(=O)N[C@@H](CC(C)C)C(=O)N[C@H](C(=O)N[C@@H](CO)C(=O)N[C@@H](Cc1c[nH]c2ccccc12)C(=O)N[C@H](C(=O)N[C@@H](CCCCN)C(=O)N[C@@H](CCCNC(=N)N)C(=O)N[C@@H](CCCCN)C(=O)N[C@@H](CCCNC(=N)N)C(=O)N[C@@H](CCC(N)=O)C(=O)N[C@@H](CCC(N)=O)C(N)=O)[C@@H](C)CC)[C@@H](C)CC)[C@@H](C)O)[C@@H](C)O)C(C)C)C(C)C [melittin, Melittin, reference compound]	numerous vesicles are visible inside and outside the cell	–
C16-KKkK-NH2	–	25 µM
